We go through 68 compounds from patent US6579868B1, “Purine derivatives and adenosine A2 receptor antagonists serving as preventives/remedies for diabetes” (Eisai Co., Ltd., priority 1998, dated 2003).

Counter-ions that a name gives are not always drawn.

In turn, `CCn1c(-c2cc(F)cc(F)c2)nc2c(N)nc(C#CC(O)(CC)CC)nc21.Cl` came in with a melting point of 204 to 205 °C.

Turning to `CCn1c(-c2cc(F)ccc2F)nc2c(N)nc(C#CC(O)(CC)CC)nc21.Cl`, the melting point was 163 to 166 °C.

`Cn1c(-c2ccccc2F)nc2c(N)nc(C#CC3(O)CCCC3)nc21` [Example 147, 1-{2-[6-Amino-8-(2-fluorophenyl)-9-methyl-9H-2-purinyl]-1-ethynyl}-1-cyclopentanol]: the melting point fell in the range of 166 to 168 °C.

Regarding `CCn1c(-c2cccc(F)c2F)nc2c(N)nc(C#CC3(O)CCCC3)nc21.Cl`, the melting point fell in the range of 138 to 140 °C.

On to `CC(C)(O)C#Cc1nc(N)c2nc(-c3cc(F)cc(F)c3)n(C3CC3)c2n1.Cl`, for which the melting point turned out to be 245 °C.

In turn, `CCCn1c(-c2cc(F)cc(F)c2)nc2c(N)nc(C#CC(O)(CC)CC)nc21.Cl` had a melting point of 183 to 184 °C.

Turning to `Cl.Nc1nc(C#CC2(O)CCCC2)nc2c1nc(-c1cccc(F)c1)n2C1CC1`, the melting point lay within 220 to 223 °C.

In the case of `Cl.Nc1nc(C#CC2(O)CCC2)nc2c1nc(-c1cccc(F)c1)n2C1CC1`, the melting point was in the range of 167 to 170 °C.

In the case of `Cn1c(-c2cc(F)cc(F)c2F)nc2c(N)nc(C#CC3(O)CCC3)nc21` [Example 126, 1-{2-[6-Amino-9-methyl-8-(2,3,5-trifluorophenyl)-9H-2-purinyl]-1-ethynyl}-1-cyclobutanol], the melting point fell in the range of 231 to 234 °C.

In turn, `Cl.Nc1nc(C#CC2(O)CCC2)nc2c1nc(-c1cc(F)cc(F)c1)n2C1CC1` displayed a melting point of 228 °C.

`Cn1c(-c2cc(F)cc(F)c2F)nc2c(N)nc(C#CC3(O)CCCC3)nc21` [Example 125, 1-{2-[6-Amino-9-methyl-8-(2,3,5-trifluorophenyl)-9H-2-purinyl]-1-ethynyl}-1-cyclopentanol] gave a melting point of 214 to 217 °C.

Compound `CCC(O)(C#Cc1nc(N)c2nc(-c3cc(F)ccc3F)n(C3CC3)c2n1)CC.Cl` had a melting point of 215 to 216 °C.

Compound `CCn1c(-c2cc(F)ccc2F)nc2c(N)nc(C#CC(C)(C)O)nc21.Cl` displayed a melting point of 215 to 218 °C.

In turn, `Cl.Cn1c(-c2cc(F)cc(F)c2)nc2c(N)nc(C#CC3(O)CCCC3)nc21` came in with a melting point of 255 to 258 °C.

In turn, `CCn1c(-c2cccc(F)c2)nc2c(N)nc(C#CC(C)(C)O)nc21.Cl` yielded a melting point of 193 to 196 °C.

In the case of `Cl.Cn1c(-c2cccc(F)c2)nc2c(N)nc(/C=C/C(C)(C)O)nc21`, the melting point is > 290 °C.

As for `CCC(O)(C#Cc1nc(N)c2nc(-c3cccc(F)c3)n(C3CC3)c2n1)CC.Cl`, the melting point was in the range of 145 to 148 °C.

`CCCn1c(-c2cccc(F)c2F)nc2c(N)nc(C#CC3(O)CCC3)nc21.Cl` displayed a melting point of 124 to 127 °C.

On to `CCCn1c(-c2cccc(F)c2)nc2c(N)nc(C#CC(O)(CC)CC)nc21.Cl`, for which the melting point fell in the range of 144 to 147 °C.

With `CCn1c(-c2cccc(F)c2)nc2c(N)nc(C#CC(O)(CC)CC)nc21.Cl`, the melting point was 150 to 153 °C.

In turn, `Cl.Cn1c(-c2cccc(F)c2)nc2c(N)nc(C#CC3(O)CCC(c4ccccc4)CC3)nc21` (centres unmarked) returned a melting point of 247 to 249 °C.

`Cl.Nc1nc(C#CC2(O)CCCC2)nc2c1nc(-c1cc(F)cc(F)c1)n2C1CC1` had a melting point of 265 to 266 °C.

With `CCCn1c(-c2cccc(F)c2F)nc2c(N)nc(C#CC3(O)CCCC3)nc21.Cl`, the melting point lay in the range of 184 to 188 °C.

As for `Cl.Cn1c(-c2ccco2)nc2c(N)nc(C#CC3CCCCC3)nc21`, the melting point lay in the range of 155 to 160 °C.

`CCC(O)(C#Cc1nc(N)c2nc(-c3cc(F)cc(F)c3)n(C3CC3)c2n1)CC.Cl` displayed a melting point of 225 °C.

Compound `CCn1c(-c2cc(F)cc(F)c2)nc2c(N)nc(C#CC(C)(C)O)nc21.Cl` returned a melting point of 233 to 234 °C.

`Cn1c(-c2ccccc2F)nc2c(N)nc(C#CC3(O)CCC3)nc21` [Example 146, 1-{2-[6-Amino-8-(2-fluorophenyl)-9-methyl-9H-2-purinyl]-1-ethynyl}-1-cyclobutanol] displayed a melting point of 136 to 138 °C.

Consider `Cl.Nc1nc(C#CC2(O)CCC2)nc2c1nc(-c1cc(F)ccc1F)n2C1CC1`, for which the melting point was 161 to 164 °C.

As for `CCCn1c(-c2cccc(F)c2F)nc2c(N)nc(C#CC(O)(CC)CC)nc21.Cl`, the melting point fell in the range of 187 to 188 °C.

The compound `CCC(O)(C#Cc1nc(N)c2nc(-c3cc(F)ccc3F)n(C)c2n1)CC.Cl` had a melting point of 147 to 148 °C.

`CCCCC#Cc1nc(N)c2nc(-c3ccco3)n(C)c2n1.Cl` had a melting point of 178 to 181 °C.

As to `Cn1c(-c2cccc(F)c2)nc2c(N)nc(C#CC3(O)C=CCC3)nc21` (centres unmarked) [Example 122, 1-{2-[6-Amino-8-(3-fluorophenyl)-9-methyl-9H-2-purinyl]-1-ethynyl}-2-cyclopenten-1-ol], the melting point lay in the range of 191 to 193 °C.

The compound `Cn1c(-c2ccccc2F)nc2c(N)nc(C#CC(C)(C)O)nc21` [Example 156, 4-[6-Amino-8-(2-fluorophenyl)-9-methyl-9H-2-purinyl]-2-methyl-3-butyn-2-ol] showed a melting point of 198 to 199 °C.

The compound `Cl.Cn1c(-c2cc(F)ccc2F)nc2c(N)nc(C#CC(C)(C)O)nc21` yielded a melting point of 177 to 178 °C.

`CCn1c(-c2cc(F)ccc2F)nc2c(N)nc(C#CC3(O)CCC3)nc21.Cl` returned a melting point of 141 to 143 °C.

Consider `CCCn1c(-c2cc(F)ccc2F)nc2c(N)nc(C#CC3(O)CCC3)nc21.Cl`, for which the melting point is 225 to 226 °C.

Compound `Cn1c(-c2cccc(F)c2F)nc2c(N)nc(C#CC3(O)CCC3)nc21` [Example 127, 1-{2-[6-Amino-8-(2,3-difluorophenyl)-9-methyl-9H-2-purinyl]-1-ethynyl}-1-cyclobutanol] had a melting point of 225 to 229 °C.

Compound `CC(C)(O)C#Cc1nc(N)c2nc(-c3cccc(F)c3)n(C3CC3)c2n1.Cl` gave a melting point of 143 to 145 °C.

For `Cl.Cn1c(-c2ccco2)nc2c(N)nc(C#CCCC3CCCCC3)nc21`, the melting point is 165 to 169 °C.

In the case of `COC1CCCCC1(O)C#Cc1nc(N)c2nc(-c3cccc(F)c3)n(C)c2n1` (centres unmarked) [Example 120, 1-{2-[6-Amino-8-(3-fluorophenyl)-9-methyl-9H-2-purinyl}-1-ethynyl}-2-methoxy-1-cyclohexanol], the melting point was 281 to 283 °C.

`CCC(O)(C#Cc1nc(N)c2nc(-c3cc(F)cc(F)c3)n(C)c2n1)CC.Cl` registered a melting point of 207 to 210 °C.

In the case of `CCC(O)(C#Cc1nc(N)c2nc(-c3ccc(C)o3)n(C)c2n1)CC.Cl`, the melting point was 229 to 230 °C.

`CCCn1c(-c2cc(F)ccc2F)nc2c(N)nc(C#CC(O)(CC)CC)nc21.Cl` yielded a melting point of 164 to 165 °C.

On to `CCC(O)(C#Cc1nc(N)c2nc(-c3ccccc3F)n(C)c2n1)CC` [Example 149], for which the melting point lay in the range of 199 to 201 °C.

Consider `CCn1c(-c2cc(F)cc(F)c2)nc2c(N)nc(C#CC3(O)CCC3)nc21.Cl`, for which the melting point lay within 234 to 235 °C.

In turn, `CC(C)C(O)C#Cc1nc(N)c2nc(-c3cccc(F)c3)n(C)c2n1.Cl` (centres unmarked) returned a melting point of 170 to 173 °C.

On to `CCCn1c(-c2cccc(F)c2F)nc2c(N)nc(C#CC(C)(C)O)nc21.Cl`, for which the melting point is 230 to 233 °C.

Compound `CCn1c(-c2cc(F)cc(F)c2)nc2c(N)nc(C#CC3(O)CCCC3)nc21.Cl` gave a melting point of 217 to 218 °C.

`CC(C)C(C)(O)C#Cc1nc(N)c2nc(-c3cccc(F)c3)n(C)c2n1.Cl` (centres unmarked) yielded a melting point of 191 to 192 °C.

Compound `CN(C)c1ccc(-n2c(-c3cccc(F)c3)nc3c(N)nc(C#CC4(O)CCCCC4)nc32)cc1` (as salt: hydrochloride) [Example 3, 1-{2-[6-Amino-9-[4-(dimetylamino)phenyl]-8-(3-fluorophenyl)-9H-2-purinyl]-1-ethynyl}-1-cyclohexanol Dihydrochloride] returned a melting point of 255 to 260 °C.

On to `Cl.Cn1c(-c2ccco2)nc2c(N)nc(C#CCCO)nc21`, for which the melting point was 161 to 164 °C.

Consider `CC(C)(O)C#Cc1nc(N)c2nc(-c3cc(F)ccc3F)n(C3CC3)c2n1.Cl`, for which the melting point lay within 196 to 198 °C.

The compound `CCCn1c(-c2cc(F)ccc2F)nc2c(N)nc(C#CC3(O)CCCC3)nc21.Cl` had a melting point of 232 to 234 °C.

`Cl.Nc1nc(C#CC2(O)CCCC2)nc2c1nc(-c1cc(F)ccc1F)n2C1CC1`: the melting point fell in the range of 230 to 232 °C.

Compound `Cl.Nc1nc(C#CC2(O)CCCCC2)nc2c1nc(-c1cccc(F)c1)n2C1CCCC1` came in with a melting point of 196 to 200 °C.

In the case of `CCCn1c(-c2cc(F)ccc2F)nc2c(N)nc(C#CC(C)(C)O)nc21.Cl`, the melting point lay in the range of 194 to 196 °C.

`CCn1c(-c2cccc(F)c2F)nc2c(N)nc(C#CC(C)(C)O)nc21.Cl` had a melting point of 213 to 215 °C.

`Cl.Cn1c(-c2cccc(F)c2)nc2c(N)nc(C#CC(C)(O)C(C)(C)C)nc21` (centres unmarked) registered a melting point of 193 to 194 °C.

`Cl.Cn1c(-c2cc(F)ccc2F)nc2c(N)nc(C#CC3(O)CCC3)nc21` had a melting point of 149 to 152 °C.

`Cl.Cn1c(-c2ccco2)nc2c(N)nc(C#CC3(O)CCCC3)nc21`: the melting point fell in the range of 168 to 172 °C.

`Cl.Cn1c(-c2cccc(F)c2)nc2c(N)nc(/C=C/C3(O)CCCCC3)nc21` registered a melting point of 222 to 225 °C.

`Cl.Cn1c(-c2cc(F)cc(F)c2)nc2c(N)nc(C#CC(C)(C)O)nc21`: the melting point was 237 to 238 °C.

`CCC(O)C#Cc1nc(N)c2nc(-c3cccc(F)c3)n(C)c2n1.Cl` (centres unmarked) returned a melting point of 171 to 175 °C.

Compound `CCn1c(-c2cc(F)ccc2F)nc2c(N)nc(C#CC3(O)CCCC3)nc21.Cl` displayed a melting point of 191 to 194 °C.

For the compound `CCCn1c(-c2cc(F)cc(F)c2)nc2c(N)nc(C#CC(C)(C)O)nc21.Cl`, the melting point was 148 to 150 °C.

On to `CCn1c(-c2cccc(F)c2)nc2c(N)nc(/C=C/C3(O)CCC3)nc21.Cl`, for which the melting point is 178 to 180 °C.

On to `CC(O)C#Cc1nc(N)c2nc(-c3ccco3)n(C)c2n1` (centres unmarked) [Example 23, 4-[6-Amino-8-(2-furyl)-9-methyl-9H-2-purinyl]-3-butyn-2-ol], for which the melting point lay in the range of 155 to 158 °C.

For `CCCn1c(-c2cc(F)cc(F)c2)nc2c(N)nc(C#CC3(O)CCCC3)nc21.Cl`, the melting point lay within 210 to 211 °C.

By melting point is commonly meant the temperature, or range, at which the solid turns liquid.
